Source: the supplement of paper PMC8882468

Legend:
Test in all cases: CTG-3D luminescence at 96 h relative to day-0 seeding control (ratio to day 0); higher = more growth / less cytotoxicity; PDxO 3D drug screen, 96 h, CTG-3D normalised to day-0 seeding control.
[1] = test system: HCI-008 (organoid from a HER2-enriched breast cancer xenograft)
[2] = test system: HCI-019 (organoid from a triple-negative breast cancer xenograft)
[3] = test system: HCI-005.E2 (organoid from a breast cancer xenograft with a HER2-positive history)
[4] = test system: HCI-017.E2 (organoid from an ER-positive breast cancer xenograft)
[5] = test system: HCI-025 (organoid from a breast cancer xenograft)
[6] = test system: MDA-MB-231
[7] = test system: HCI-016 (organoid from a triple-negative breast cancer xenograft)

C=CC(=O)N1CCC[C@@H](n2nc(-c3ccc(Oc4ccccc4)cc3)c3c(N)ncnc32)C1 [ibrutinib]
CTG-3D luminescence at 96 h
Settings	12.5 pM	0.00025 µM	0.005 µM	0.1 µM	1 µM	10 µM	100 µM	625 fM
[1], days in culture: 228	1.59	1.84	1.21	1.18	1.26	1	-0.0059	1.66
[1], days in culture: 244	1.25	1.71	1.76	1.65	1.52	1.3	-0.0038	1.98
[2], days in culture: 110	1.83	0.982	1.32	2.18	1.21	1.26	-0.00836	2.04
[2], days in culture: 131	2.58	3.79	2.31	2.19	1.24	2.27	-0.0163	2.86
[2], days in culture: 152	3.76	3.16	2.83	2.13	1.54	1.75	-0.00421	2.48
[4], days in culture: 85	2.54	2.97	2.31	2.54	1.88	1.6	0.0338	2.31
[5], days in culture: 172	2.25	1.2	2.79	1.4	1.8	0.991	-0.0111	2.37
[5], days in culture: 209	2.38	2.13	2.26	2.09	1.86	1.41	-0.0107	1.71
[5], days in culture: 218	1.78	2.33	1.93	1.68	1.57	1.75	-0.00991	1.84
[7], days in culture: 153	3.08	1.69	2.64	2.11	2.69	1.59	-0.00474	2.85
[7], days in culture: 172	1.97	1.45	2	1.61	1.46	1.04	-0.00481	1.49
[7], days in culture: 190	1.59	1.26	1.45	1.11	0.915	0.881	-0.00814	1.37
[7], days in culture: 199	1.58	1.62	1.43	1.26	1.35	1.21	-0.00558	1.72

CTG-3D luminescence at 96 h
Settings	12.5 pM	0.00025 µM	0.005 µM	0.1 µM	1 µM	10 µM	100 µM	625 fM
[3]	1.47	2	1.22	1.93	1.38	0.629	-0.00377	1.61
[4]	1.84	2.24	2.27	2.21	2.29	1.49	0.00316	2.16
[6]	4.49	4.45	4.49	4.64	4.82	4.66	-0.0103	4.55

CC(=O)O[C@H]1C(=O)[C@@]2(C)[C@H]([C@H](OC(=O)c3ccccc3)[C@]3(O)C[C@H](OC(=O)[C@H](O)[C@@H](NC(=O)c4ccccc4)c4ccccc4)C(C)=C1C3(C)C)[C@]1(OC(C)=O)CO[C@@H]1C[C@@H]2O [paclitaxel]
CTG-3D luminescence at 96 h
Settings	12.5 pM	0.00025 µM	0.005 µM	0.1 µM	1 µM	10 µM	100 µM	625 fM
[1], days in culture: 228	1.67	1.93	0.719	0.575	0.627	0.764	0.554	1.55
[1], days in culture: 244	1.16	1.96	1.22	0.925	0.832	0.852	0.58	2.02
[2], days in culture: 110	1.88	1.91	0.816	0.627	0.47	0.827	0.987	2.39
[2], days in culture: 131	2.01	2.78	0.75	0.609	0.644	1.48	1.29	3.26
[2], days in culture: 152	1.25	1.28	0.778	0.964	0.598	1.01	1.18	1.52
[4], days in culture: 85	2.33	1.88	1.23	0.935	1.09	1.04	0.81	1.92
[5], days in culture: 172	1.17	0.343	0.553	0.314	0.362	0.295	0.584	0.698
[5], days in culture: 209	2.09	2.2	1.75	0.281	0.353	0.301	0.767	2
[5], days in culture: 218	1.85	2.18	1.43	0.199	0.168	0.213	0.507	1.92
[7], days in culture: 153	1.14	0.515	0.631	0.561	0.976	1.08	0.796	0.781
[7], days in culture: 172	2.25	1.87	1.29	0.627	0.505	0.659	0.505	1.5
[7], days in culture: 190	1.89	1.42	0.919	0.359	0.861	0.704	0.661	1.05
[7], days in culture: 199	1.64	1.67	0.633	0.431	0.495	0.834	0.484	1.66

CTG-3D luminescence at 96 h
Settings	12.5 pM	0.00025 µM	0.005 µM	0.1 µM	1 µM	10 µM	100 µM	625 fM
[3]	1.56	1.54	1.53	1.34	1.49	1.85	1.39	1.97
[4]	1.06	1.2	1.2	1.2	1.17	1.23	1.3	1.35
[6]	3.73	3.45	2.71	2.03	2	2.42	1.09	3.85

CC1(C)CCC(c2ccc(Cl)cc2)=C(CN2CCN(c3ccc(C(=O)NS(=O)(=O)c4ccc(N[C@H](CCN5CCOCC5)CSc5ccccc5)c(S(=O)(=O)C(F)(F)F)c4)cc3)CC2)C1 [navitoclax]
CTG-3D luminescence at 96 h
Settings	12.5 pM	0.00025 µM	0.005 µM	0.1 µM	1 µM	10 µM	100 µM	625 fM
[1], days in culture: 228	1.53	1.62	1.55	1.61	1.2	0.854	0.0594	1.77
[1], days in culture: 244	1.31	1.99	1.94	2.06	1.57	0.824	0.0293	2.52
[2], days in culture: 110	1.8	1.8	1.56	1.84	0.469	0.538	0.0111	2.31
[2], days in culture: 131	2.39	3.6	3.23	2.91	1.25	0.358	0.0147	3.96
[2], days in culture: 152	2.86	2.49	3.21	1.89	0.769	0.582	0.00119	2.39
[4], days in culture: 85	2.05	1.26	2.18	1.93	1.57	1.98	0.14	1.51
[5], days in culture: 172	3.28	1.84	2.93	0.781	0.555	-0.249	-0.109	2.63
[5], days in culture: 209	1.95	2.53	2.24	1.27	1.81	0.666	0.00258	2.29
[5], days in culture: 218	1.36	1.87	1.59	1.15	0.81	0.293	0.0152	1.91
[7], days in culture: 153	3.08	1.54	2.11	1.77	1.76	0.105	0.000169	3.01
[7], days in culture: 172	2.29	2.07	1.85	1.43	1.55	0.931	0.00877	1.68
[7], days in culture: 190	2.07	1.62	1.9	1.65	1.46	1.1	0.0887	1.24
[7], days in culture: 199	2.03	2.16	2.22	1.82	2.1	0.827	0.0061	1.99

CTG-3D luminescence at 96 h
Settings	12.5 pM	0.00025 µM	0.005 µM	0.1 µM	1 µM	10 µM	100 µM	625 fM
[3]	1.5	1.46	1.66	1.7	1.24	1.21	0.0085	1.6
[4]	1.6	2	1.8	1.81	1.78	1.7	0.043	1.812
[6]	4.52	4.44	4.56	4.28	3.8	1.42	0.000199	4.6

C/C=C1\NC(=O)[C@H]2CSSCC/C=C/[C@H](CC(=O)N[C@H](C(C)C)C(=O)N2)OC(=O)[C@H](C(C)C)NC1=O [romidepsin]
CTG-3D luminescence at 96 h
Settings	12.5 pM	0.00025 µM	0.005 µM	0.1 µM	1 µM	10 µM	100 µM	625 fM
[1], days in culture: 228	1.78	1.7887	0.632	0.0457	0.0185	0.0061	-0.00528	2.13
[1], days in culture: 244	1.41	2.08	0.607	0.0448	0.0206	0.00309	-0.0086	2.35
[2], days in culture: 110	1.6	1.12	0.598	0.376	0.0772	0.000883	-0.00824	2.26
[2], days in culture: 131	2.29	2.76	1.06	0.975	0.441	0.00479	-0.00826	3.05
[2], days in culture: 152	1.95	1.43	1.55	0.685	0.489	0.00416	-0.00783	1.53
[4], days in culture: 85	2.46	2.08	1.87	0.329	0.2	0.0715	-0.00898	2.18
[5], days in culture: 172	1.84	1.14	1.58	-0.245	-0.354	-0.306	-0.318	1.48
[5], days in culture: 209	1.99	2.87	1.48	0.312	0.313	0.034	-0.0293	1.94
[5], days in culture: 218	1.5	2.01	0.886	-0.155	-0.189	-0.329	-0.306	1.84
[7], days in culture: 153	2.79	0.384	0.563	0.106	0.214	-0.00553	-0.0108	2.21
[7], days in culture: 172	2.29	1.31	0.385	0.107	0.127	0.00531	-0.0131	1.69
[7], days in culture: 190	1.76	1.62	0.684	0.0156	0.0109	-0.0529	-0.107	1.55
[7], days in culture: 199	2	2.14	0.631	0.071	0.0656	-0.00558	-0.0191	2.15

CTG-3D luminescence at 96 h
Settings	12.5 pM	0.00025 µM	0.005 µM	0.1 µM	1 µM	10 µM	100 µM	625 fM
[3]	1.07	0.734	0.155	0.0737	0.0546	0.00415	-0.00471	0.827
[4]	1.34	1.36	0.657	0.298	0.151	0.033	-0.0104	1.17
[6]	3.87	3.12	0.22	0.0791	0.0421	-0.000441	-0.0309	4.02
